The values below come from patent US11040035B2, “3-oxo-2,6-diphenyl-2,3-dihydropyridazine-4-carboxamides” (BAYER PHARMA AKTIENGESELLSCHAFT, priority 2016, dated 2021).

Assay [1] concerns the target T1, AHR (Homo sapiens, UniProt P35869).
T1 sequence (P35869 11-848): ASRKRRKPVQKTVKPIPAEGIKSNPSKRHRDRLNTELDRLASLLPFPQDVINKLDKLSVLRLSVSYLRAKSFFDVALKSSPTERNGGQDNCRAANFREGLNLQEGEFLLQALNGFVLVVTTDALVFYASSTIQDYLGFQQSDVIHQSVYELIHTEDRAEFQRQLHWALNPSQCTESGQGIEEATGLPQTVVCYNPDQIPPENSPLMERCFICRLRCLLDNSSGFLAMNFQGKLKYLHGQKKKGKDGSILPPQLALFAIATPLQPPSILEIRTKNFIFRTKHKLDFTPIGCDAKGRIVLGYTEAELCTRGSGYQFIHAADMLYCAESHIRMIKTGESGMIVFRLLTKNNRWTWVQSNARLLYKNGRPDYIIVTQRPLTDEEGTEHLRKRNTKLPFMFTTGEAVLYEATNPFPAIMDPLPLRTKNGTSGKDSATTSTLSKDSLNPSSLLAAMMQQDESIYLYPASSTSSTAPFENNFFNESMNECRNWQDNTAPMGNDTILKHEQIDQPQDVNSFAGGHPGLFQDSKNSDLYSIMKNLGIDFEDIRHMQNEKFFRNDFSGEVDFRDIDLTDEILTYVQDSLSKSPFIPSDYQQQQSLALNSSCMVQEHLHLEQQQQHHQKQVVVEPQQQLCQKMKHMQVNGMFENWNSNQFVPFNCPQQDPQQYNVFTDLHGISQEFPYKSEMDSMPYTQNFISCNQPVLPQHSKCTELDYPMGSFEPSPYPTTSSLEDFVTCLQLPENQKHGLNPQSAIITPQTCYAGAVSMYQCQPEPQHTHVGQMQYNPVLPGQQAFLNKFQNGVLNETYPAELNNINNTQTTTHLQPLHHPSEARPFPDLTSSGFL
In words: In vitro assay 2: agonism in human cell line (transactivation assay). The conditions noted are these: Assay 2: AHR-luc Hum Agonism IC50 [M], no kynurenic acid, 20 hours, firefly luciferase.

For assay [2], the system named is AHR-regulated gene CYP1A1. In words: In vitro assay 3: AHR-regulated CYP1A1 expression in human cell line (U937, qPCR). Conditions: Homo sapiens, U-937, 6 h, read-out: Assay 3: Hum CYP1A1 Antagonism IC50 [M], U937 cells, 200 μM KA, 6 hours, qPCR. Background: Quantitative PCR measures a nucleic acid by following its amplification.
Assay [3] addresses T1, AHR. In words: In vitro assay 1: antagonism in human cell line (transactivation assay, kynurenic acid prestimulated). Conditions: Assay 1: AHR-luc Hum Antagonism IC50 [M], 150 μM kynurenic acid, 20 hours, firefly luciferase.

A word on the IC50: it is the midpoint of a concentration-inhibition curve.

Consider `CC(O)C(NC(=O)c1cc(-c2ccc(Cl)cc2)nn(-c2cccc(F)c2)c1=O)C(F)(F)F` (mixture of isomers) [Example 197, 6-(4-Chlorophenyl)-2-(3-fluorophenyl)-3-oxo-N-[(2RS, 3RS)-1,1,1-trifluoro-3-hydroxybutan-2-yl]-2,3-dihydropyridazine-4-carboxamide and 6-(4-Chlorophenyl)-2-(3-fluorophenyl)-3-oxo-N-[(2RS, 3SR)-1,1,1-trifluoro-3-hydroxybutan-2-yl]-2,3-dihydropyridazine-4-carboxamide], for which the IC50 at AHR [1] is greater than 2e-05 M; in assay [2] it was 1.82e-08 M; against AHR [3], 1.97e-08 M.

Regarding `O=C(NC(CO)C1CCC1)c1cc(-c2ccc(Cl)cc2)nn(-c2cccc(F)c2)c1=O` (racemic) [Example 209, 6-(4-Chlorophenyl)-N-[(1RS)-1-cyclobutyl-2-hydroxyethyl]-2-(3-fluorophenyl)-3-oxo-2,3-dihydropyridazine-4-carboxamide], the concentration for half-maximal inhibition (IC50) against AHR [1] is greater than 2e-05 M; in assay [2], 3.21e-08 M; on AHR [3], 3.27e-08 M.

As for `CC(CO)CNC(=O)c1cc(-c2ccc(C(F)(F)F)cc2)nn(-c2cccc(F)c2)c1=O` (racemic) [Example 245, 2-(3-Fluorophenyl)-N-[(2RS)-3-hydroxy-2-methylpropyl]-3-oxo-6-[4-(trifluoromethyl)phenyl]-2,3-dihydropyridazine-4-carboxamide], the concentration for half-maximal inhibition (IC50) against AHR [1] was greater than 2e-05 M; in assay [2], 5.44e-08 M; against AHR [3] it was 3.72e-08 M.

For `CC(O)CCNC(=O)c1cc(-c2ccc(C(F)(F)F)cc2)nn(-c2cccc(F)c2)c1=O` (racemic) [Example 247, 2-(3-Fluorophenyl)-N-[(3RS)-3-hydroxybutyl]-3-oxo-6-[4-(trifluoromethyl)phenyl]-2,3-dihydropyridazine-4-carboxamide], the IC50 on AHR [1] is greater than 2e-05 M; in assay [2], 1.71e-07 M; at AHR [3], 8.35e-08 M.

As for `CC(CCO)NC(=O)c1cc(-c2ccc(C(F)(F)F)cc2)nn(-c2cccc(F)c2)c1=O` (racemic) [Example 253, 2-(3-Fluorophenyl)-N-[(2RS)-4-hydroxybutan-2-yl]-3-oxo-6-[4-(trifluoromethyl)phenyl]-2,3-dihydropyridazine-4-carboxamide], the values for the IC50 (against AHR [1]; in assay [2]; at AHR [3]) were greater than 2e-05 M, 3.62e-08 M and 2.89e-08 M, respectively.

As for `O=C(NC(CO)CCO)c1cc(-c2ccc(C(F)(F)F)cc2)nn(-c2cccc(F)c2)c1=O` (racemic) [Example 262, N-[(2RS)-1,4-Dihydroxybutan-2-yl]-2-(3-fluorophenyl)-3-oxo-6-[4-(trifluoromethyl)phenyl]-2,3-dihydropyridazine-4-carboxamide], the IC50 against AHR [1] was greater than 2e-05 M; in assay [2], 9.15e-08 M; at AHR [3], 5.51e-08 M.

`O=C(NC(CO)C1CCCO1)c1cc(-c2ccc(C(F)(F)F)cc2)nn(-c2cccc(F)c2)c1=O` (racemic) [Example 263, 3,6-Anhydro-2,4,5-trideoxy-2-[({2-(3-fluorophenyl)-3-oxo-6-[4-(trifluoromethyl)phenyl]-2,3-dihydropyridazin-4-yl}carbonyl)amino]-DL-erythro-hexitol and 1,4-anhydro-2,3,5-trideoxy-5-[({2-(3-fluorophenyl)-3-oxo-6-[4-(trifluoromethyl)phenyl]-2,3-dihydropyridazin-4-yl}carbonyl)amino]-DL-threo-hexitol]: the IC50 was greater than 2e-05 M on AHR [1], 6.06e-08 M in assay [2] and 3.54e-08 M on AHR [3].

For `O=C(NC(CO)C1CC1)c1cc(-c2ccc(C(F)(F)F)cc2)nn(-c2cccc(F)c2)c1=O` (racemic) [Example 267, N-[(1RS)-1-Cyclopropyl-2-hydroxyethyl]-2-(3-fluorophenyl)-3-oxo-6-[4-(trifluoromethyl)phenyl]-2,3-dihydropyridazine-4-carboxamide], the IC50 at AHR [1] was greater than 2e-05 M; in assay [2] it was 1.05e-08 M; at AHR [3], 2.9e-08 M.

On to `O=C(N[C@@H]1CCC[C@@H]1O)c1cc(-c2ccc(Cl)cc2)nn(-c2cccc(F)c2)c1=O` (relative stereo) [Example 109, 6-(4-Chlorophenyl)-2-(3-fluorophenyl)-N-(cis-2-hydroxycyclopentyl)-3-oxo-2,3-dihydropyridazine-4-carboxamide], for which the half-maximal inhibitory concentration (IC50) against AHR [1] was greater than 2e-05 M; in assay [2] it was 3.61e-08 M.

Turning to `Cc1ccc(-c2cc(C(=O)NC(CO)C(C)C)c(=O)n(-c3cccc(F)c3)n2)cc1` (stereo not drawn) [Example 1, 2-(3-Fluorophenyl)-N-(1-hydroxy-3-methylbutan-2-yl)-6-(4-methylphenyl)-3-oxo-2,3-dihydropyridazine-4-carboxamide], the IC50 in assay [2] was 3.1e-08 M; against AHR [3], 2.98e-08 M.

On to `Cc1ccc(-c2cc(C(=O)N[C@@H](CO)C(C)C)c(=O)n(-c3cccc(F)c3)n2)cc1` [Example 3, 2-(3-Fluorophenyl)-N-[(2R)-1-hydroxy-3-methylbutan-2-yl]-6-(4-methylphenyl)-3-oxo-2,3-dihydropyridazine-4-carboxamide], for which the IC50 worked out at 1.31e-07 M in assay [2] and 3.03e-07 M against AHR [3].

On to `Cc1ccc(-c2cc(C(=O)NC(C)CO)c(=O)n(-c3cccc(F)c3)n2)cc1` (stereo not drawn) [Example 7, 2-(3-Fluorophenyl)-N-(1-hydroxypropan-2-yl)-6-(4-methylphenyl)-3-oxo-2,3-dihydropyridazine-4-carboxamide], for which the results for the IC50 (in assay [2]; against AHR [3]) were 1.23e-07 M and 6.4e-08 M, respectively.

`CC[C@@H](CO)NC(=O)c1cc(-c2ccc(Cl)cc2)nn(-c2cccc(F)c2)c1=O` [Example 21, 6-(4-Chlorophenyl)-2-(3-fluorophenyl)-N-[(2S)-1-hydroxybutan-2-yl]-3-oxo-2,3-dihydropyridazine-4-carboxamide]: the IC50 is 3.54e-08 M in assay [2] and 1.89e-08 M against AHR [3].

In the case of `Cc1ccc(-c2cc(C(=O)NC(CO)C(C)C)c(=O)n(-c3ccccc3)n2)cc1` (stereo not drawn) [Example 70, N-(1-hydroxy-3-methylbutan-2-yl)-6-(4-methylphenyl)-3-oxo-2-phenyl-2,3-dihydropyridazine-4-carboxamide], the values for the IC50 (in assay [2]; at AHR [3]) were 1.26e-07 M and 9.22e-08 M, respectively.

`Cc1ccc(-c2cc(C(=O)N[C@H](CO)C(C)C)c(=O)n(-c3cccc(F)c3)n2)cc1C` [Example 83, 6-(3,4-dimethylphenyl)-2-(3-fluorophenyl)-N-[(2S)-1-hydroxy-3-methylbutan-2-yl]-3oxo-2,3-dihydropyridazine-4-carboxamide]: the half-inhibitory concentration (IC50) in assay [2] was determined as 2.39e-08 M; on AHR [3], 3.6e-08 M.

For the compound `CC[C@@H](CO)NC(=O)c1cc(-c2ccc(C)c(C)c2)nn(-c2cccc(F)c2)c1=O` [Example 86, 6-(3,4-dimethylphenyl)-2-(3-fluorophenyl)-N-[(2S)-1-hydroxybutan-2-yl]-3-oxo-2,3-dihydropyridazine-4-carboxamide], the results for the IC50 (in assay [2]; against AHR [3]) were 4.83e-08 M and 4.55e-08 M, respectively.

As to `Cc1ccc(-c2cc(C(=O)N[C@@H](C)CO)c(=O)n(-c3cccc(F)c3)n2)cc1C` [Example 89, 6-(3,4-dimethylphenyl)-2-(3-fluorophenyl)-N-[(2S)-1-hydroxypropan-2-yl]-3-oxo-2,3-dihydropyridazine-4-carboxamide], the results for the IC50 (in assay [2]; on AHR [3]) were 1.88e-07 M and 1.15e-07 M, respectively.
